Experimental data as given in patent publication US20250215029A1 (Recludix Pharma, Inc., priority 2022, published 2025).

Target: T1, pY705-STAT3 in PBMC (Homo sapiens, UniProt P40763)
T1 construct: Cryopreserved Peripheral Blood Mononuclear Cells (PBMC) are from AllCells; host or cells: cryopreserved PBMC
Test: MSD-pSTAT-PBMC Assay (pSTAT3, IL-6 stimulated)
Format: cell-based
Conditions: PBMC, compound 3 hrs, then 10 ng/mL IL-6 for 10 min; Table 115; read-out: STAT3
Outline: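 MSD electrochemiluminescence read-out: total STAT captured, probed with anti-pY641-STAT6 or anti-pY705-STAT3. Human PBMC, 3 h compound pretreatment, 10 min stimulation (IL-4 1 ng/mL or IL-6 10 ng/mL). Unstimulated signal subtracted, DMSO-normalized, variable-slope IC50.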

T1 sequence (P40763 whole entry): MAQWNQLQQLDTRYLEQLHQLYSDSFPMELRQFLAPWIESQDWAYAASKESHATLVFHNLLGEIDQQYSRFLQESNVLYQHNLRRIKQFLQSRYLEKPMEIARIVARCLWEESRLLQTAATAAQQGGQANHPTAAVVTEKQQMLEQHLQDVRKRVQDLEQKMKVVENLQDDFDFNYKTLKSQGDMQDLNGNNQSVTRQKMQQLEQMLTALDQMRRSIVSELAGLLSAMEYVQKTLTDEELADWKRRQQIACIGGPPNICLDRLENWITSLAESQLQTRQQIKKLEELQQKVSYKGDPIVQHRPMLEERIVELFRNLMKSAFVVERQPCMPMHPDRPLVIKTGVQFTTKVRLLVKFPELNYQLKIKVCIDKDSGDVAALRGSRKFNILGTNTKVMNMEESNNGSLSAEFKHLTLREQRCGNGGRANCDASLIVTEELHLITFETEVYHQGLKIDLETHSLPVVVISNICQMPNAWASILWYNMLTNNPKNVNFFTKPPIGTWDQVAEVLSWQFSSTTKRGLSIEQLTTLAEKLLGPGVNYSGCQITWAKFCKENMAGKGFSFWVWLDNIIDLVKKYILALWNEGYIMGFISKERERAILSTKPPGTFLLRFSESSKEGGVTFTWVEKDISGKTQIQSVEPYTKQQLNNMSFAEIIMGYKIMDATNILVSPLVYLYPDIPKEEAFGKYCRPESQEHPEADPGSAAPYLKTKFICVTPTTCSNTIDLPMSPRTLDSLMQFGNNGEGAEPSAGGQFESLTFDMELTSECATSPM

`CCCOC(=O)[C@H](C)N[P@](=O)(Oc1ccccc1)[C@@H](F)c1ccc2sc(C(=O)N[C@H]3C[C@@H](C)C[C@H]4CC[C@@H](C(=O)N5CC(c6cnccc6OC)C5)N4C3=O)cc2c1` (single isomer, unassigned) [Compound 1058] and `CCCOC(=O)[C@H](C)NP(=O)(Oc1ccccc1)[C@@H](F)c1ccc2sc(C(=O)N[C@H]3C[C@@H](C)C[C@H]4CC[C@@H](C(=O)N5CC(c6cnccc6N(C)C)C5)N4C3=O)cc2c1` (stereo partly drawn) [Compound 1029, propyl (((R)-(2-(((3S,6S,8R,9aR)-3-(3-(4-(dimethylamino)pyridin-3-yl)azetidine-1-carbonyl)-8-methyl-5-oxooctahydro-1H-pyrrolo[1,2-a]azepin-6-yl)carbamoyl)benzo [b]thiophen-5-yl)fluoromethyl) (phenoxy)phosphoryl)-L-alaninate] cannot be ordered by IC50: less than 100 nM for the first, less than 100 nM for the second.

`CCCOC(=O)[C@H](C)NP(=O)(Oc1ccccc1)C(F)c1ccc2sc(C(=O)N[C@H]3CCCC[C@H]4CC[C@@H](C(=O)N5CC(NCC(F)F)(c6ccccn6)C5)N4C3=O)cc2c1` (stereo partly drawn) [Compound 1020, propyl (((2-(((3S,6S,10aS)-3-(3-((2,2-difluoroethyl)amino)-3-(pyridin-2-yl)azetidine-1-carbonyl)-5-oxodecahydropyrrolo [1,2-a]azocin-6-yl)carbamoyl)benzo [b]thiophen-5-yl)fluoromethyl) (phenoxy)phosphoryl)-L-alaninate] and `CCCOC(=O)[C@H](C)NP(=O)(Oc1ccccc1)C(F)c1ccc2sc(C(=O)N[C@H]3CCCC[C@H]4CC[C@@H](C(=O)N5CC(OCC(F)F)(c6cccnc6)C5)N4C3=O)cc2c1` (stereo partly drawn) [Compound 950, propyl (((2-(((3S,6S,10aS)-3-(3-(2,2-difluoroethoxy)-3-(pyridin-3-yl)azetidine-1-carbonyl)-5-oxodeca-hydropyrrolo [1,2-a]azocin-6-yl)carbamoyl)benzo [b]thiophen-5-yl)fluoromethyl) (phenoxy)phosphoryl)-L-alaninate] cannot be ordered by IC50: less than 100 nM for the first, less than 100 nM for the second.

`COC[C@H](NP(=O)(Cc1ccc2sc(C(=O)N[C@H]3CCC[C@H]4CC[C@@H](C(=O)N5CC(c6cccnc6)C5)N4C3=O)cc2c1)Oc1ccccc1)C(=O)OCc1ccccc1` (stereo partly drawn) [Compound 946, benzyl O-methyl-N-(((2-(((3S,6S,9aS)-5-oxo-3-(3-(pyridin-3-yl)azetidine-1-carbonyl)octahydro-1H-pyrrolo[1,2-a]azepin-6-yl)carbamoyl)benzo [b]thiophen-5-yl)methyl)(phenoxy)phosphoryl)-L-serinate] and `CCOC(=O)[C@H](CC)NP(=O)(Cc1ccc2sc(C(=O)N[C@H]3CCC[C@H]4CC[C@@H](C(=O)N5CC(c6cccnc6)C5)N4C3=O)cc2c1)Oc1ccccc1` (stereo partly drawn) [Compound 944, ethyl (2S)-2-((((2-(((3S,6S,9aS)-5-oxo-3-(3-(pyridin-3-yl)azetidine-1-carbonyl)octahydro-1H-pyrrolo[1,2-a]azepin-6-yl)carbamoyl)benzo [b]thiophen-5-yl)methyl)(phenoxy)phosphoryl)amino) butanoate] fall in the same range of IC50: 100 to 1000 nM for the first, 100 to 1000 nM for the second.

First: CCCOC(=O)[C@H](C)NP(=O)(Cc1ccc2sc(C(=O)N[C@H]3CCC[C@H]4CC[C@@H](C(=O)N5CC(c6cccnc6)C5)N4C3=O)cc2c1)OCC (stereo partly drawn) [Compound 439, propyl (ethoxy((2-(((3S,6S,9aS)-5-oxo-3-(3-(pyridin-3-yl)azetidine-1-carbonyl)octahydro-1H-pyrrolo[1,2-a]azepin-6-yl)carbamoyl)benzo [b]thiophen-5-yl)methyl)phosphoryl)-L-alaninate]
Second: C[C@H](NP(=O)(Cc1ccc2sc(C(=O)N[C@H]3CCC[C@H]4CC[C@@H](C(=O)N5CC(c6cccnc6)C5)N4C3=O)cc2c1)Oc1ccccc1)C(=O)OCC(C)(C)C (stereo partly drawn) [Compound 256, neopentyl (((2-(((3S,6S,9aS)-5-oxo-3-(3-(pyridin-3-yl)azetidine-1-carbonyl)octahydro-1H-pyrrolo[1,2-a]azepin-6-yl)carbamoyl)benzo [b]thiophen-5-yl)methyl)(phenoxy)phosphoryl)-L-alaninate]
The IC50 of the first is higher: 100 to 1000 nM for the first, less than 100 nM for the second.

`CCCOC(=O)[C@H](C)NP(=O)(Cc1ccc2sc(C(=O)N[C@H]3CCC[C@H]4CC[C@@H](C(=O)N5CC(c6cncnc6N(C)C)C5)N4C3=O)cc2c1)Oc1ccccc1` (stereo partly drawn) [Compound 1070, propyl (((2-(((3S,6S,9aS)-3-(3-(4-(dimethylamino)pyrimidin-5-yl)azetidine-1-carbonyl)-5-oxooctahydro-1H-pyrrolo[1,2-a]azepin-6-yl)carbamoyl)benzo [b]thiophen-5-yl)methyl)(phenoxy)phosphoryl)-L-alaninate] and `CCCOC(=O)[C@H](C)NP(=O)(Oc1ccccc1)[C@@H](F)c1ccc2sc(C(=O)N[C@H]3CCC[C@H]4CC[C@@H](C(=O)N5CC(c6cncnc6N(C)C)C5)N4C3=O)cc2c1` (some centres unmarked) [Compound 1069] cannot be ordered by IC50: less than 100 nM for the first, less than 100 nM for the second.

First: COc1ccncc1C1CN(C(=O)[C@@H]2CC[C@@H]3CCC[C@H](NC(=O)c4cc5cc([C@H](F)[P@@](=O)(N[C@@H](C)C(=O)OC(C)C)Oc6ccccc6)ccc5s4)C(=O)N32)C1 (single isomer, unassigned) [Compound 1023]
Second: COc1ccncc1C1CN(C(=O)[C@@H]2CC[C@@H]3CCC[C@H](NC(=O)c4cc5cc([C@@H](F)[P@](=O)(N[C@@H](C)C(=O)OCc6ccccc6)Oc6ccccc6)ccc5s4)C(=O)N32)C1 (single isomer, unassigned) [Compound 1054]
The IC50 of the first is higher: 100 to 1000 nM for the first, less than 100 nM for the second.

First: Cc1ccncc1C1CN(C(=O)[C@@H]2CC[C@@H]3CCC[C@H](NC(=O)c4cc5cc(CP(=O)(N[C@@H](C)C(=O)OC(C)C)Oc6ccccc6)ccc5s4)C(=O)N32)C1 (stereo partly drawn) [Compound 298, isopropyl (((2-(((3S,6S,9aS)-3-(3-(4-methylpyridin-3-yl)azetidine-1-carbonyl)-5-oxooctahydro-1H-pyrrolo[1,2-a]azepin-6-yl)carbamoyl)benzo [b]thiophen-5-yl)methyl)(phenoxy)phosphoryl)-L-alaninate]
Second: CCCOC(=O)[C@H](C)NP(=O)(Cc1ccc2sc(C(=O)N[C@H]3CCC[C@H]4CC[C@@H](C(=O)N5CC(c6cnccc6N6CC(OC)C6)C5)N4C3=O)cc2c1)Oc1ccccc1 (stereo partly drawn) [Compound 300, propyl (((2-(((3S,6S,9aS)-3-(3-(4-(3-methoxyazetidin-1-yl)pyridin-3-yl)azetidine-1-carbonyl)-5-oxooctahydro-1H-pyrrolo[1,2-aJazepin-6-yl)carbamoyl)benzo [b]thiophen-5-yl)methyl)(phenoxy)phosphoryl)-L-alaninate]
The IC50 of the first is higher: 100 to 1000 nM for the first, less than 100 nM for the second.

Compared with `CC(C)OC(=O)[C@@H]1CCCN1P(=O)(Cc1ccc2sc(C(=O)N[C@H]3CCC[C@H]4CC[C@@H](C(=O)N5CC(c6cccnc6)C5)N4C3=O)cc2c1)Oc1ccccc1` (stereo partly drawn) [Compound 391, isopropyl (((2-(((3S,6S,9aS)-5-oxo-3-(3-(pyridin-3-yl)azetidine-1-carbonyl)octahydro-1H-pyrrolo[1,2-a]azepin-6-yl)carbamoyl)benzo [b]thiophen-5-yl)methyl)(phenoxy)phosphoryl)-L-prolinate], `CCCOC(=O)[C@H](C)NP(=O)(Cc1ccc2sc(C(=O)N[C@H]3CCC[C@H]4CC[C@@H](C(=O)N5CC(c6cncnc6N6CC[C@H]6COC)C5)N4C3=O)cc2c1)Oc1ccccc1` (stereo partly drawn) [Compound 1072, propyl (((2-(((3S,6S,9aS)-3-(3-(4-((S)-2-(methoxymethyl)azetidin-1-yl)pyrimidin-5-yl)azetidine-1-carbonyl)-5-oxooctahydro-1H-pyrrolo[1,2-a]azepin-6-yl)carbamoyl)benzo [b]thiophen-5-yl)methyl)(phenoxy)phosphoryl)-L-alaninate] is lower in IC50: 1000 to 3000 nM for the first, less than 100 nM for the second.

First: CCCOC(=O)[C@H](C)NP(=O)(Oc1ccccc1)[C@@H](F)c1ccc2sc(C(=O)N[C@H]3CCC[C@H]4CC[C@@H](C(=O)N5CC(c6cncc(F)c6N(C)C)C5)N4C3=O)cc2c1 (stereo partly drawn) [Compound 1022, propyl (((R)-(2-(((3S,6S,9aS)-3-(3-(4-(dimethylamino)-5-fluoropyridin-3-yl)azetidine-1-carbonyl)-5-oxooctahydro-1H-pyrrolo[1,2-a]azepin-6-yl)carbamoyl)benzo [b]thiophen-5-yl)fluoromethyl) (phenoxy)phosphoryl)-L-alaninate]
Second: CCCOC(=O)[C@H](C)NP(=O)(Oc1ccccc1)[C@@H](F)c1ccc2sc(C(=O)N[C@H]3CCC[C@H]4CC[C@@H](C(=O)N5CC(c6cnccc6F)C5)N4C3=O)cc2c1 (stereo partly drawn) [Compound 994, propyl (((R)-fluoro(2-(((3S,6S,9aS)-3-(3-(4-fluoropyridin-3-yl)azetidine-1-carbonyl)-5-oxooctahydro-1H-pyrrolo[1,2-a]azepin-6-yl)carbamoyl)benzo [b]thiophen-5-yl)methyl)(phenoxy)phosphoryl)-L-alaninate]
The IC50 of the first is lower: less than 100 nM for the first, 100 to 1000 nM for the second. The first is the more potent here.

Compound `COCCOCC(=O)SCCOP(=O)(OCCSC(=O)COCCOC)C(F)(F)c1ccc2sc(C(=O)N[C@H]3CCC[C@H]4CC[C@@H](C(=O)N5CC(c6cccnc6)C5)N4C3=O)cc2c1` [Compound 1102, S,S′-((((difluoro(2-(((3S,6S,9aS)-5-oxo-3-(3-(pyridin-3-yl)azetidine-1-carbonyl)octahydro-1H-pyrrolo[1,2-a]azepin-6-yl)carbamoyl)benzo [b]thiophen-5-yl)methyl)phosphoryl)bis(oxy))bis(ethane-2,1-diyl)) bis(2-(2-methoxyethoxy) ethanethioate)] has an IC50 of less than 100 nM.

Same assay, conditions: STAT3, PBMC, compound 3 hrs, then 10 ng/mL IL-6 for 10 min; Table 115

`CCCOC(=O)[C@H](C)NP(=O)(Cc1ccc2sc(C(=O)N[C@H]3C[C@H](C)C[C@H]4CC[C@@H](C(=O)N5CC(c6cnccc6N(C)C)C5)N4C3=O)cc2c1)Oc1ccccc1` (stereo partly drawn) [Compound 1079, propyl (((2-(((3S,6S,8S,9aR)-3-(3-(4-(dimethylamino)pyridin-3-yl)azetidine-1-carbonyl)-8-methyl-5-oxooctahydro-1H-pyrrolo[1,2-a]azepin-6-yl)carbamoyl)benzo [b]thiophen-5-yl)methyl)(phenoxy)phosphoryl)-L-alaninate] gave an IC50 of less than 100 nM.
